Test results reported in PubChem BioAssay AID2060494 (Molecular Pharmacology Branch, DTP, NCI, 2025).

Test system: 435261-313-R-J1-PDC complex spheroid viability
Experiment: Anticancer human tumor 435261-313-R-J1-PDC patient-derived colon adenocarcinoma cell line growth inhibition [GQUAD]
Conditions: for IC50: curve of first compound; for viability, T/C: stronger effect = lower value
In short: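 Multi-cell-type spheroids of tumor cells with HUVEC and mesenchymal stem cells, treated with drug combinations. Concentrations descend in half-log steps from near clinical Cmax, or from 10 microM where Cmax is unknown; viability read-out.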

[1] = second compound 0.0316 µM, first compound 0.0316 µM
[2] = second compound 0.0316 µM, first compound 0.1 µM
[3] = second compound 0.0316 µM, first compound 0.316 µM
[4] = second compound 0.0316 µM, first compound 1 µM
[5] = second compound 0.0316 µM, first compound 3.16 µM
[6] = second compound 0.0316 µM, first compound 10 µM
[7] = second compound 0.1 µM, first compound 0.0316 µM
[8] = second compound 0.1 µM, first compound 0.1 µM
[9] = second compound 0.1 µM, first compound 0.316 µM
[10] = second compound 0.1 µM, first compound 1 µM
[11] = second compound 0.1 µM, first compound 3.16 µM
[12] = second compound 0.1 µM, first compound 10 µM
[13] = second compound 0.316 µM, first compound 0.0316 µM
[14] = second compound 0.316 µM, first compound 0.1 µM
[15] = second compound 0.316 µM, first compound 0.316 µM
[16] = second compound 0.316 µM, first compound 1 µM
[17] = second compound 0.316 µM, first compound 3.16 µM
[18] = second compound 0.316 µM, first compound 10 µM
[19] = second compound 1 µM, first compound 0.0316 µM
[20] = second compound 1 µM, first compound 0.1 µM
[21] = second compound 1 µM, first compound 0.316 µM
[22] = second compound 1 µM, first compound 1 µM
[23] = second compound 1 µM, first compound 3.16 µM
[24] = second compound 1 µM, first compound 10 µM
[25] = second compound 3.16 µM, first compound 0.0316 µM
[26] = second compound 3.16 µM, first compound 0.1 µM
[27] = second compound 3.16 µM, first compound 0.316 µM
[28] = second compound 3.16 µM, first compound 1 µM
[29] = second compound 3.16 µM, first compound 3.16 µM
[30] = second compound 3.16 µM, first compound 10 µM
[31] = second compound 10 µM, first compound 0.0316 µM
[32] = second compound 10 µM, first compound 0.1 µM
[33] = second compound 10 µM, first compound 0.316 µM
[34] = second compound 10 µM, first compound 1 µM
[35] = second compound 10 µM, first compound 3.16 µM
[36] = second compound 10 µM, first compound 10 µM
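Also: spheroids exposed to the agents for seven days before readout.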
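For viability, T/C in this document: percent of vehicle control viability with DMSO wells as 100%.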

C=CCn1c(=O)c2cnc(Nc3ccc(N4CCN(C)CC4)cc3)nc2n1-c1cccc(C(C)(C)O)n1 + Cc1cnc(CNC(=O)c2c(=O)c3ccc(N4CCCN(C)CC4)nc3n3c2sc2ccccc23)cn1
IC50 (second compound 0.0316 µM): > 10 µM
IC50 (second compound 0.1 µM): 0.266 µM
IC50 (second compound 0.316 µM): 2.25 µM
IC50 (second compound 1 µM): < 0.0316 µM
IC50 (second compound 3.16 µM): < 0.0316 µM
IC50 (second compound 10 µM): < 0.0316 µM
viability, T/C [1]: 67.6%
viability, T/C [2]: 59.2%
viability, T/C [3]: 59.4%
viability, T/C [4]: 57%
viability, T/C [5]: 52.7%
viability, T/C [6]: 51.3%
viability, T/C [7]: 61.3%
viability, T/C [8]: 56.1%
viability, T/C [9]: 44.4%
viability, T/C [10]: 47.8%
viability, T/C [11]: 54.4%
viability, T/C [12]: 42.4%
viability, T/C [13]: 54%
viability, T/C [14]: 59.2%
viability, T/C [15]: 49.9%
viability, T/C [16]: 52.9%
viability, T/C [17]: 49.6%
viability, T/C [18]: 36.8%
viability, T/C [19]: 34.9%
viability, T/C [20]: 39.6%
viability, T/C [21]: 36.2%
viability, T/C [22]: 39.1%
viability, T/C [23]: 41.2%
viability, T/C [24]: 30.5%
viability, T/C [25]: 14%
viability, T/C [26]: 4.69%
viability, T/C [27]: 8.48%
viability, T/C [28]: 4.99%
viability, T/C [29]: 5.92%
viability, T/C [30]: 0.17%
viability, T/C [31]: 0.17%
viability, T/C [32]: 0.17%
viability, T/C [33]: 0.19%
viability, T/C [34]: 0.16%
viability, T/C [35]: 0.19%
viability, T/C [36]: 0.15%

CC(=O)O[C@H]1C(=O)[C@@]2(C)[C@H]([C@H](OC(=O)c3ccccc3)[C@]3(O)C[C@H](OC(=O)[C@H](O)[C@@H](NC(=O)c4ccccc4)c4ccccc4)C(C)=C1C3(C)C)[C@]1(OC(C)=O)CO[C@@H]1C[C@@H]2O + Cc1cnc(CNC(=O)c2c(=O)c3ccc(N4CCCN(C)CC4)nc3n3c2sc2ccccc23)cn1
IC50 (second compound 0.0316 µM): 0.825 µM
IC50 (second compound 0.1 µM): > 10 µM
IC50 (second compound 0.316 µM): 5.2 µM
IC50 (second compound 1 µM): < 0.0316 µM
IC50 (second compound 3.16 µM): < 0.0316 µM
IC50 (second compound 10 µM): < 0.0316 µM
viability, T/C [1]: 66.7%
viability, T/C [2]: 58.1%
viability, T/C [3]: 56.9%
viability, T/C [4]: 40.8%
viability, T/C [5]: 54.3%
viability, T/C [6]: 48.4%
viability, T/C [7]: 54.5%
viability, T/C [8]: 54%
viability, T/C [9]: 51.5%
viability, T/C [10]: 45.1%
viability, T/C [11]: 57.3%
viability, T/C [12]: 53.6%
viability, T/C [13]: 56.8%
viability, T/C [14]: 55.1%
viability, T/C [15]: 52.7%
viability, T/C [16]: 52.9%
viability, T/C [17]: 53.4%
viability, T/C [18]: 46.8%
viability, T/C [19]: 40.3%
viability, T/C [20]: 41.5%
viability, T/C [21]: 42.3%
viability, T/C [22]: 42.9%
viability, T/C [23]: 45.6%
viability, T/C [24]: 34%
viability, T/C [25]: 10.4%
viability, T/C [26]: 4.44%
viability, T/C [27]: 6.35%
viability, T/C [28]: 12.5%
viability, T/C [29]: 11.3%
viability, T/C [30]: 7.23%
viability, T/C [31]: 0.12%
viability, T/C [32]: 0.16%
viability, T/C [33]: 0.15%
viability, T/C [34]: 0.17%
viability, T/C [35]: 0.2%
viability, T/C [36]: 0.16%

COc1ncnc(C2CC2)c1-c1ncc2cnn(Cc3ccc(-c4nc(C(F)(F)F)cn4C(C)C)cc3)c2n1 + Cc1cnc(CNC(=O)c2c(=O)c3ccc(N4CCCN(C)CC4)nc3n3c2sc2ccccc23)cn1
IC50 (second compound 0.0316 µM): > 10 µM
IC50 (second compound 0.1 µM): > 10 µM
IC50 (second compound 0.316 µM): < 0.0316 µM
IC50 (second compound 1 µM): < 0.0316 µM
IC50 (second compound 3.16 µM): < 0.0316 µM
IC50 (second compound 10 µM): < 0.0316 µM
viability, T/C [1]: 63.8%
viability, T/C [2]: 55.6%
viability, T/C [3]: 61.9%
viability, T/C [4]: 55.2%
viability, T/C [5]: 65.9%
viability, T/C [6]: 55.6%
viability, T/C [7]: 65.5%
viability, T/C [8]: 59.7%
viability, T/C [9]: 51.1%
viability, T/C [10]: 53.5%
viability, T/C [11]: 61.9%
viability, T/C [12]: 53.8%
viability, T/C [13]: 48.4%
viability, T/C [14]: 53.7%
viability, T/C [15]: 52.4%
viability, T/C [16]: 48.5%
viability, T/C [17]: 55.1%
viability, T/C [18]: 54.3%
viability, T/C [19]: 32.6%
viability, T/C [20]: 40.8%
viability, T/C [21]: 40.7%
viability, T/C [22]: 31.8%
viability, T/C [23]: 42.1%
viability, T/C [24]: 37.2%
viability, T/C [25]: 17.9%
viability, T/C [26]: 10.5%
viability, T/C [27]: 17.6%
viability, T/C [28]: 8.94%
viability, T/C [29]: 15.1%
viability, T/C [30]: 17.2%
viability, T/C [31]: 0.18%
viability, T/C [32]: 0.17%
viability, T/C [33]: 0.23%
viability, T/C [34]: 0.19%
viability, T/C [35]: 0.2%
viability, T/C [36]: 0.18%
